In patent publication US20070141092A1, “BIGUANIDE COMPOSITION AND METHOD OF TREATMENT AND PREVENTION OF VIRAL INFECTIONS” (priority 2005, published 2007):

Experiments:
Assay type in all cases: cell-based
Adenovirus Type-4 = assay: Viral Suspension Assay, Adenovirus Type-4; conditions: both 30 ppm and 99 ppm
Description: (§1) The Viral Suspension Assay was used to evaluate the antiviral properties of Alexidine against Adenovirus Type-4, Adenovirus Type-8 and Adenovirus Type-19 and Cytomegalovirus when exposed in suspension for 1, 2, 5, and 10 minutes. The presence of virus (infectivity) was determined by monitoring the virus specific cytopathic effect (CPE) on an appropriate indicator cell line, rabbit kidney. Results are reported as Percent (%) Reduction in virus titer as compared to the corresponding virus control titer (Table 1). The titer of the virus controls were 7.5 log10 following the one minute exposure time; 7.0 log10 following the two minute exposure time; and 7.75 log10 following both the five and ten minute exposure times.

Cytomegalovirus = assay: Viral Suspension Assay, Cytomegalovirus; conditions: both 30 ppm and 99 ppm
Description: as §1

[1] = test system: Herpes simplex virus type 1; assay: Viral Suspension Assay, HSV-1 (CPE on rabbit kidney indicator cells)
Description: as §1, with “Herpes simplex virus type 1” for “Adenovirus Type-4, Adenovirus Type-8 and Adenovirus Type-19 and Cytomegalovirus”

Adenovirus Type-8 = assay: Viral Suspension Assay, Adenovirus Type-8; conditions: both 30 ppm and 99 ppm
Description: as §1

## CCCCC(CC)CNC(=N)NC(=N)NCCCCCCNC(=N)NC(=N)NCC(CC)CCCC (centres unmarked) [Alexidine, 1,1′-hexamethylene-bis[5-(2-ethylhexyl)biguanide]]
Adenovirus Type-4
  Effectiveness against Adenovirus Type-4 (in words): somewhat effective
Cytomegalovirus
  Effectiveness against Cytomegalovirus (in words): somewhat effective
[1]; both 30 ppm and 99 ppm
  Effectiveness against herpes simplex type-1 virus (in words): effective agents
[1]; summary statement
  Overall activity against Herpes Simplex-1 (in words): potent antimicrobial agent
Adenovirus Type-8
  Effectiveness against Adenovirus Type-8 (in words): somewhat effective
